Test system: anaesthetized rats
Assay: Blood pressure and heart rate after slow intravenous administration in anaesthetized rats
Assay type: in vivo
Settings: for HR (beats/min) / MAP (mmHg): mean ± SEM, n=6; for maximal change in HR / maximal change in MAP: percent change from baseline
Protocol: The effects of 3-(1H-imidazol-4-ylmethyl)-indan-5-ol on blood pressure and heart rate after slow intravenous administration were studied in anaesthetized rats. Dexmedetomidine (Orion Corporation Orion Pharma, Finland), a specific α2-adrenoceptor agonist was studied as a reference compound.
Male Spraque-Dawley rats (B&K, Sweden), weighing 290-400 g, were anaesthetized with sodium pentobarbital (Mebunat® 60 mg/ml) 75 mg/kg i.p. The left femoral vein was cannulated (PE-50) for slow drug injections. The left femoral artery was cannulated (PE-60) and the mean arterial blood pressure (MAP) and heart rate (HR) were recorded continuously via a Micro MP-15 transducer connected to a Grass Model 7D Polygraph. Arterial pressure was sampled at a rate 150 samples/second and recorded on a Pinus PC computer using the software program AcqKnowledge version 3.5.3 and a MP100A data acquisition unit for analog/digital conversion (BIOPAC Systems, Inc.). Pulse waves of the blood pressure were used for displaying heart rate continuously. The body temperature (rectal) was kept constant at 37±0.5° C. by warming with a lamp above the animal's chest. Only rats with MAP of 73 mmHg or higher were used for the tests. After a stabilizing period of 10-20 min, 3-(1H-imidazol-4-ylmethyl)-indan-5-ol (1 and 3 μg/kg, as hydrochloride) or dexmedetomidine (3 and 10 μg/kg, as hydrochlorides) dose was given as slow intravenous injection (during 5 min) by an infusion pump (Perfusor® ED 2, B. Braun). The total injection volume was adjusted to 1 ml in each experimental group.

[1] = dose 3 μg/kg slow i.v. (during 5 min), time 0 min
[2] = dose 3 μg/kg slow i.v. (during 5 min), time 3 min
[3] = dose 3 μg/kg slow i.v. (during 5 min), time 5 min
[4] = dose 3 μg/kg slow i.v. (during 5 min), time 10 min
[5] = dose 3 μg/kg slow i.v. (during 5 min), time 20 min
[6] = dose 3 μg/kg slow i.v. (during 5 min), time 30 min
[7] = dose 10 μg/kg slow i.v. (during 5 min), time 0 min
[8] = dose 10 μg/kg slow i.v. (during 5 min), time 2 min
[9] = dose 10 μg/kg slow i.v. (during 5 min), time 5 min
[10] = dose 10 μg/kg slow i.v. (during 5 min), time 10 min
[11] = dose 10 μg/kg slow i.v. (during 5 min), time 20 min
[12] = dose 10 μg/kg slow i.v. (during 5 min), time 30 min
[13] = slow intravenous administration of 3 and 10 μg/kg
[14] = dose 1 μg/kg slow i.v. (during 5 min), time 0 min
[15] = dose 1 μg/kg slow i.v. (during 5 min), time 3 min
[16] = dose 1 μg/kg slow i.v. (during 5 min), time 5 min
[17] = dose 1 μg/kg slow i.v. (during 5 min), time 10 min
[18] = dose 1 μg/kg slow i.v. (during 5 min), time 20 min
[19] = dose 1 μg/kg slow i.v. (during 5 min), time 30 min
[20] = slow (during 5 minutes) i.v. dosing of 1 and 3 μg/kg

SMILES: Cc1cccc([C@H](C)c2cnc[nH]2)c1C [Dexmedetomidine, dexmedetomidine]
- HR (beats/min) [1]: 348 ± 12 beats/min
- MAP (mmHg) [1]: 89 ± 5 mmHg
- HR (beats/min) [2]: 310 ± 6 beats/min
- MAP (mmHg) [2]: 86 ± 5 mmHg
- HR (beats/min) [3]: 310 ± 5 beats/min
- MAP (mmHg) [3]: 79 ± 7 mmHg
- HR (beats/min) [4]: 308 ± 4 beats/min
- MAP (mmHg) [4]: 61 ± 4 mmHg
- HR (beats/min) [5]: 309 ± 5 beats/min
- MAP (mmHg) [5]: 65 ± 2 mmHg
- HR (beats/min) [6]: 309 ± 5 beats/min
- MAP (mmHg) [6]: 67 ± 2 mmHg
- HR (beats/min) [7]: 383 ± 11 beats/min
- MAP (mmHg) [7]: 92 ± 2 mmHg
- HR (beats/min) [8]: 308 ± 5 beats/min
- MAP (mmHg) [8]: 94 ± 4 mmHg
- HR (beats/min) [9]: 309 ± 3 beats/min
- MAP (mmHg) [9]: 75 ± 6 mmHg
- HR (beats/min) [10]: 303 ± 3 beats/min
- MAP (mmHg) [10]: 59 ± 3 mmHg
- HR (beats/min) [11]: 296 ± 7 beats/min
- MAP (mmHg) [11]: 68 ± 2 mmHg
- HR (beats/min) [12]: 297 ± 6 beats/min
- MAP (mmHg) [12]: 73 ± 2 mmHg
- maximal change in HR [13]: −21%
- maximal change in MAP [13]: −37%

SMILES: Oc1ccc2c(c1)C(Cc1c[nH]cn1)CC2 (stereo not shown) [MPV-2426 Al, 3-(1H-imidazol-4-ylmethyl)-indan-5-ol]
- HR (beats/min) [14]: 373 ± 8 beats/min
- MAP (mmHg) [14]: 97 ± 4 mmHg
- HR (beats/min) [15]: 324 ± 9 beats/min
- MAP (mmHg) [15]: 114 ± 3 mmHg
- HR (beats/min) [16]: 321 ± 9 beats/min
- MAP (mmHg) [16]: 112 ± 3 mmHg
- HR (beats/min) [17]: 327 ± 7 beats/min
- MAP (mmHg) [17]: 83 ± 4 mmHg
- HR (beats/min) [18]: 319 ± 9 beats/min
- MAP (mmHg) [18]: 84 ± 4 mmHg
- HR (beats/min) [19]: 317 ± 9 beats/min
- MAP (mmHg) [19]: 80 ± 3 mmHg
- HR (beats/min) [1]: 366 ± 11 beats/min
- MAP (mmHg) [1]: 94 ± 5 mmHg
- HR (beats/min) [2]: 309 ± 7 beats/min
- MAP (mmHg) [2]: 123 ± 9 mmHg
- HR (beats/min) [3]: 311 ± 4 beats/min
- MAP (mmHg) [3]: 117 ± 12 mmHg
- HR (beats/min) [4]: 321 ± 4 beats/min
- MAP (mmHg) [4]: 88 ± 4 mmHg
- HR (beats/min) [5]: 321 ± 6 beats/min
- MAP (mmHg) [5]: 83 ± 5 mmHg
- HR (beats/min) [6]: 305 ± 6 beats/min
- MAP (mmHg) [6]: 77 ± 3 mmHg
- maximal change in HR [20]: −19%
- maximal change in MAP [20]: +31%
